Measurements as given in patent US8986737B2, “Antibiotic microspheres for treatment and prevention of osteomyelitis and enhancement of bone regrowth” (Wm. Marsh Rice University, priority 2002, dated 2015).
Converted amounts (≈) assume the structure as drawn. Read-outs that look alike come from different tables or passages of the source.

System: S. aureus UAMS-1 (ATCC 49230)
Test: MIC and MBC determination by standard dilution methods
Assay type: cell-based, Staphylococcus aureus
Description: The strain of S. aureus used in this study, UAMS-1, was isolated from a patient with osteomyelitis and deposited at the American Type Culture Collection as strain ATCC 49230. The bacteria were prepared from overnight cultures grown in tryptic soy broth at 37° C. with aeration. Cells were harvested by centrifugation, washed with sterile physiological saline, and resuspended to a final concentration of 2×10^8 CFU/ml (OD of 60% transmittance). Cell suspensions were prepared on the day of surgery and held on ice until implanted.
Minimum inhibitory concentration (MIC) and minimum bactericidal concentration (MBC) for the two antibiotics tested, tobramycin and cefazolin, were determined by standard dilution methods published by the National Committee for Clinical Laboratory Standards. Briefly, S. aureus cells were grown and diluted to 0.5 McFarland turbidity standard, approximately 2×10^8 cells/ml. The cells were mixed with either of the two antibiotics tested, at concentrations ranging from 2 μg/ml to 64 μg/ml. The following day, the cultures were examined for turbidity to allow determination of MIC values. After this, sample clear cultures were plated to determine the MBC, and colonies counts were done the next day.
Minimum inhibitory concentration and minimum bactericidal concentration for tobramycin was determined as previously described above, by standard dilution methods published by the National Committee for Clinical Laboratory Standards.

[1] = Staphylococcus aureus, ATCC49230, read-out: MBC
[2] = Staphylococcus aureus, ATCC49230, read-out: MIC

Row | MIC [2] | MIC | Compound | MBC [1] | MBC
1 | 2 µg/mL (≈ 4.4 µM) | – | Cc1nnc(SCC2=C(C(=O)O)N3C(=O)[C@@H](NC(=O)Cn4cnnn4)[C@H]3SC2)s1 [Cefazolin] | 32 µg/mL (≈ 70.4 µM) | –
2 | 4 to 8 µg/mL (≈ 8.56 to 17.1 µM) | 4 to 8 µg/mL | NC[C@H]1O[C@H](O[C@H]2[C@H](O)[C@@H](O[C@H]3O[C@H](CO)[C@@H](O)[C@H](N)[C@H]3O)[C@H](N)C[C@@H]2N)[C@H](N)C[C@@H]1O [Tobramycin] | 16 µg/mL (≈ 34.2 µM) | 16 µg/mL (≈ 34.2 µM)
